# Read-outs that look alike come from different tables or passages of the source.
# Legend:
# reticulocytes (RC) = assay: Peripheral blood micronucleus test; format: in vivo, Male Slc:ddY mice; conditions: mice, intravenous; for MNRC (%) mean ±S.E. 24 hours: 24 hours after administration; for MNRC (%) mean ±S.E. 48 hours: 48 hours after administration; for micronucleus induction: (untreated control: 0.12±0.08)
# Experimental: Peripheral Blood Micronucleus Test
# Used animals and administration method are similar to those in the mouse acute toxicity test. Samples were prepared by collecting 5 μl each of blood sample from the tail vein at 24 and 48 hours after the administration, dropping the blood on a slide at which 0.1% acridine orange solution had been applied in advance, sealing the slide with a cover glass immediately, and allowing it to stand in a refrigerator for 24 hours.
# [1] = test system: Mycobacterium tuberculosis (RFP sensitive); assay: Antibacterial activity (MIC) against Mycobacterium tuberculosis (RFP sensitive); format: cell-based; conditions: Mycobacterium tuberculosis, read-out: MIC
# [2] = Mouse acute toxicity test; format: in vivo, Male Slc:ddY mice; conditions: intravenous; for survival of mice after administration / acute toxicity: text summary of Table 9; for Mortality (dead/ test) / acute toxicity: mice
# Experimental: Mouse Acute Toxicity Test
# Male Slc:ddY mice at age of 5-weeks were used as test animals. For dissolving the compounds, 0.1 mol/l NaOH (in saline) was used. Mice were administered intravenously at a rate of 0.1 ml/30 seconds at a dosing volume of 10 ml/kg.
# M. avium = assay: Antibacterial activity (MIC) against M. avium; format: cell-based, Mycobacterium avium; conditions: Mycobacterium avium, read-out: MIC
# Experimental: Antibacterial activity of the compounds of the invention was measured in accordance with the method described in the literature of Antimicrob. […] In the tables, “OFLX” is an abbreviation of “OFLOXAIN”.
# M. intracellulare = assay: Antibacterial activity (MIC) against M. intracellulare; format: cell-based, Mycobacterium intracellulare
# Experimental: Antibacterial activity of the compounds of the invention was measured in accordance with the method described in the literature of Antimicrob. Agents and Chemother., 38, 2877 (1994), and the results are shown in Tables 3 to 8 in terms of MIC (μg/ml). In the tables, “OFLX” is an abbreviation of “OFLOXAIN”.
smiles,measurement,setting,value
"COc1c(N2CCN(C)CC2)c(F)cc2c(=O)c(C(=O)O)cn([C@@H]3C[C@@H]3F)c12 [Compd. 15, 6-Fluoro-1-[2-(S)-fluoro-1-(R)-cyclopropyl]-1,4-dihydro-8-methoxy-7-(4-methylpiperazin-1-yl)-4-oxoquinoline-3-carboxylic acid]",MNRC (%) mean ±S.E. 24 hours,reticulocytes (RC); 50 mg/kg,0.20 ± 0.04%
same,MNRC (%) mean ±S.E. 48 hours,reticulocytes (RC); 50 mg/kg,0.14 ± 0.04%
same,micronucleus induction,reticulocytes (RC),weak
same,MIC,"[1]; H37RV, M. tuberculosis H37Rv, Table 5",0.1 µg/mL
same,MIC,"[1]; M. tuberculosis Kurono, Table 5",0.05 µg/mL
same,MIC,"[1]; M. tuberculosis No. 40, Table 5",0.05 µg/mL
same,MIC,"[1]; M. tuberculosis No. 41, Table 5",0.025 µg/mL
same,MIC,"[1]; M. tuberculosis No. 43, Table 5",0.39 µg/mL
same,MIC,"[1]; M. tuberculosis No. 68, Table 5",0.1 µg/mL
same,survival of mice after administration,[2],all mice were survived
same,Mortality (dead/ test),[2]; 50 mg/kg,0/5
same,acute toxicity,[2],relatively weak
same,MIC,"M. avium; M. avium N-357, Table 3",0.39 µg/mL
same,MIC,"M. avium; M. avium N-444, Table 3",0.78 µg/mL
same,MIC,"M. avium; M. avium N-458, Table 3",0.2 µg/mL
same,MIC,"M. avium; M. avium N-472, Table 3",1.56 µg/mL
same,MIC,"M. intracellulare; M. intracellulare N-338, Table 3",1.56 µg/mL
same,MIC,"M. intracellulare; Mycobacterium intracellulare, M. intracellulare N-313, Table 3, read-out: MIC",0.39 µg/mL
same,MIC,"M. intracellulare; Mycobacterium intracellulare, M. intracellulare N-345, Table 3, read-out: MIC",3.13 µg/mL
same,MIC,"M. intracellulare; Mycobacterium intracellulare, M. intracellulare N-294, Table 3, read-out: MIC",1.56 µg/mL
"COc1c(N2C[C@@H](C)N[C@@H](C)C2)c(F)cc2c(=O)c(C(=O)O)cn([C@@H]3C[C@@H]3F)c12 [Compd. 16, 7-(3,5-cis-Dimethylpiperazin-1-yl)-6-fluoro-1-[2-(S)-fluoro-1-(R)-cyclopropyl]-1,4-dihydro-8-methoxy-4-oxoquinoline-3-carboxylic acid]",MNRC (%) mean ±S.E. 24 hours,reticulocytes (RC); 150 mg/kg,0.05 ± 0.03%
same,MNRC (%) mean ±S.E. 48 hours,reticulocytes (RC); 150 mg/kg,0.12 ± 0.02%
same,micronucleus induction,reticulocytes (RC),weak
same,MIC,"[1]; H37RV, M. tuberculosis H37Rv, Table 6 (series 2)",0.12 µg/mL
same,MIC,"[1]; M. tuberculosis Kurono, Table 6 (series 2)",0.12 µg/mL
same,MIC,"[1]; M. tuberculosis No. 40, Table 6 (series 2)",0.12 µg/mL
same,MIC,"[1]; M. tuberculosis No. 41, Table 6 (series 2)",0.03 µg/mL
same,MIC,"[1]; M. tuberculosis No. 43, Table 6 (series 2)",1 µg/mL
same,MIC,"[1]; M. tuberculosis No. 68, Table 6 (series 2)",0.12 µg/mL
same,survival of mice after administration,[2],all mice were survived
same,Mortality (dead/ test),[2]; 150 mg/kg,0/5
same,acute toxicity,[2],relatively weak
same,MIC,"M. avium; M. avium N-357, Table 4 (series 2)",0.5 µg/mL
same,MIC,"M. avium; M. avium N-444, Table 4 (series 2)",1 µg/mL
same,MIC,"M. avium; M. avium N-458, Table 4 (series 2)",0.5 µg/mL
same,MIC,"M. avium; M. avium N-472, Table 4 (series 2)",4 µg/mL
same,MIC,"M. intracellulare; Mycobacterium intracellulare, M. intracellulare N-294, Table 4 (series 2), read-out: MIC",1 µg/mL
same,MIC,"M. intracellulare; Mycobacterium intracellulare, M. intracellulare N-313, Table 4 (series 2), read-out: MIC",0.12 µg/mL
same,MIC,"M. intracellulare; Mycobacterium intracellulare, M. intracellulare N-338, Table 4 (series 2), read-out: MIC",0.5 µg/mL
same,MIC,"M. intracellulare; Mycobacterium intracellulare, M. intracellulare N-345, Table 4 (series 2), read-out: MIC",0.5 µg/mL
"COc1c(N2CCNC(CF)C2)c(F)cc2c(=O)c(C(=O)O)cn([C@@H]3C[C@@H]3F)c12 (stereo partly drawn) [Compd. 19, 6-Fluoro-1-[(1R,2S)-2-fluorocyclopropyl]-7-(3-fluoromethylpiperazin-1-yl)-1,4-dihydro-8-methoxy-4-oxoquinoline-3-carboxylic acid]",melting point,,153 to 156 °C
"COCC1CN(c2c(F)cc3c(=O)c(C(=O)O)cn([C@@H]4C[C@@H]4F)c3c2OC)CCN1 (stereo partly drawn) [Compd. 21, 6-Fluoro-1-[(1R,2S)-2-fluorocyclopropyl]-1,4-dihydro-8-methoxy-7-(3-methoxymethylpiperazin-1-yl)-4-oxoquinoline-3-carboxylic acid]",melting point,,92 to 95 °C
"COc1c(N2CCNC3(CC3)C2)c(F)cc2c(=O)c(C(=O)O)cn([C@@H]3C[C@@H]3F)c12 [Compd. 22, 7-{4,7-Diazaspiro[2.5]octan-7-yl}-6-fluoro-1-[(1R,2S)-2-fluorocyclopropyl]-1,4-dihydro-8-methoxy-4-oxoquinoline-3-carboxylic acid]",melting point,,164 to 167 °C (dec.)

# — US7176313B2, “Anti acid-fast bacterial agent containing pyridonecarboxylic acids as active ingredient” (Daiichi Pharmaceutical Co., Ltd., priority 2000, dated 2007)
